Like-named read-outs stand apart in the source and are kept apart here.
Tests used:
Cryptococcus neoformans = experiment: Antifungal broth microdilution MIC (50% growth inhibition, 48 h); type: cell-based; details: Cryptococcus neoformans, read-out: MIC
Procedure: (§1) Serial dilutions (from 128 μg/mL to 0.06 μg/mL) of the tested compounds and control drugs (fluconazole, itraconazole and amphotericin) (in triplicates), were screened against clinical isolates of Candida albicans, Candida auris, Candida glabrata, Candida parapsilosis, Candida tropicalis, Candida krusei, Cryptococcus neoformans, Cryptococcus gattii and Aspergillus fumigatus species using the broth microdilution method according to the Clinical and Laboratory Standards Institute guidelines. MICs were determined as the lowest concentration of the compounds that inhibited the fungal growth by 50% after incubation at 35 °C for 24 h (for Candida and Aspergillus), or 48 h (for Cryptococcus). The minimum fungicidal concentration (MFC) of these compounds was tested by plating 4 μL from wells with no growth onto YPD agar plates. The plates were incubated at 37 °C for 24 hours before recording the MFC, which was categorized as the lowest concentration that reduced fungal growth by 99.9% [45]. The experiment was repeated three independent times.

Cryptococcus gattii = experiment: as above; type: cell-based; details: Cryptococcus gattii, read-out: MIC
Procedure: as §1

[1] = test system: Lactobacillus crispatus HM-370; experiment: Broth microdilution MIC against normal human microbiota; type: cell-based; details: HM370; Lactobacillus crispatus HM-370; read-out: MIC
Procedure: (§2) Broth microdilution was utilized to determine the activity of bisphenylthiazoles against the human gut microflora as described elsewhere. A bacterial solution equivalent to 0.5 McFarland standards was prepared and diluted in MRS broth to achieve a bacterial concentration of approximately 5 x 10^5 CFU/mL. Then, compounds/control antifungals (in triplicates), were added to the plates and serially diluted with media containing bacteria. The plates were incubated for 48 hours at 37 °C before recording the MIC values. The experiment was repeated three independent times.

[2] = test system: Lactobacillus gasseri HM-400; experiment: as above; type: cell-based; details: HM400; Lactobacillus gasseri HM-400; read-out: MIC
Procedure: as §2

[3] = test system: Lactobacillus casei ATCC-334; experiment: as above; type: cell-based; details: Lacticaseibacillus casei, ATCC334; Lactobacillus casei ATCC-334; read-out: MIC
Procedure: as §2

[4] = test system: E. coli BW25113 (wild-type); experiment: Broth microdilution MIC, initial antibacterial screening; type: cell-based, Escherichia coli; details: Escherichia coli, read-out: MIC
Procedure: (§3) The minimum inhibitory concentrations (MICs) of the tested compounds and control drugs against clinically-relevant bacterial strains were determined using the broth microdilution method, according to guidelines outlined by the Clinical and Laboratory Standards Institute (CLSI), or as described previously.
(§4) Initial screening of the bisphenylthiazoles against Gram-positive and Gram-negative bacteria. Bacterial strains, (except C. difficile that was grown anaerobically on brain heart infusion supplemented agar at 37° C for 48 hours), were grown aerobically overnight on tryptone soy agar plates at 37° C. Afterwards, a bacterial solution equivalent to 0.5 McFarland standard was prepared and diluted in cation-adjusted Mueller-Hinton broth (CAMHB) (for S. aureus, and E. coli) to achieve a bacterial concentration of about 5 × 10^5 CFU/mL. C. difficile was diluted in brain heart infusion supplemented broth, supplemented with yeast extract, hemin and vitamin K to achieve a bacterial concentration of about 5 × 10^5 CFU/mL. Compounds and control drugs were added in the first row of the 96 -well plates, and serially diluted with the corresponding media containing bacteria. Plates were then, incubated aerobi cally at 37° C for 18-20 hours (for S. aureus and E. coli). C. difficile was incubated anaerobically at 37° C for 48 hours. […]
(§5) the visual growth of bacteria.

[5] = test system: E. coli JW55031 (tolC-mutant); experiment: microbe, parasite or virus in culture; type: cell-based, Escherichia coli; details: Escherichia coli
Procedure: as §3, §4, §5

Candida parapsilosis = experiment: Antifungal broth microdilution MIC (50% growth inhibition); type: cell-based; details: Lodderomyces parapsilosis, read-out: MIC
Method in brief: (§6)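 Clinical isolates were tested in triplicate by CLSI broth microdilution over 128–0.06 μg/mL. MIC was the lowest concentration giving 50% growth inhibition after 35 °C incubation, 24 h for Candida, 48 h for Cryptococcus. For MFC, wells without growth were plated on YPD agar, 37 °C for 24 hours; MFC meant 99.9% growth reduction.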

Aspergillus fumigatus = experiment: as above; type: cell-based; details: Aspergillus fumigatus, read-out: MIC
Method in brief: as §6

[6] = GSH trap (reactive metabolite); type: in vitro ADME; details: reactive metabolite formation
[7] = test system: C. difficile ATCC BAA1870; experiment: Broth microdilution MIC, initial antibacterial screening (anaerobic); type: cell-based, Clostridioides difficile; details: Clostridioides difficile, ATCCBAA1870, read-out: MIC
Procedure: as §3, §4, §5

Candida auris = experiment: Antifungal broth microdilution MIC (50% growth inhibition) and MFC; type: cell-based; details: Candidozyma auris, read-out: MIC
Method in brief: as §6

Candida krusei = experiment: as above; type: cell-based; details: Pichia kudriavzevii, read-out: MIC
Method in brief: as §6

Candida glabrata = experiment: as above; type: cell-based; details: Nakaseomyces glabratus, read-out: MIC
Method in brief: as §6

Candida tropicalis = experiment: as above; type: cell-based; details: Candida tropicalis, ATCC1369; C. tropicalis ATCC 1369; read-out: MIC
Method in brief: as §6

Candida albicans = experiment: as above; type: cell-based; details: Candida albicans, read-out: MIC
Method in brief: as §6

MRSA USA300 = experiment: Broth microdilution MIC, initial antibacterial screening; type: cell-based, S. aureus; details: Staphylococcus aureus; MRSA USA300; read-out: MIC
Procedure: as §3, §4, §5

[8] = test system: monkey kidney epithelial cells (Vero); experiment: In vitro cytotoxicity, MTS assay; details: Vero, 24 h exposure, MTS
Procedure: (§7) Fig 2 In vitro cytotoxicity assay of bisphenylthiazole compounds 7, 16 and 17 (tested in triplicates at 32, 64 and 128 μg/mL) against: A) human colorectal cells (Caco-2), and B) monkey kidney epithelial cells (Vero) after 24-hours exposure time, using the MTS 3-(4,5-dimethylthiazol-2-yl)-5-(3-carboxymethoxyphenyl)-2-(4-sulfophenyl)-2H-tetrazolium) assay. The data represent the percentage of viable Caco-2 or Vero cells measured as the average absorbance relative to DMSO after exposure to the tested compounds. Dimethyl sulfoxide (DMSO) was used as a negative control. Error bars represent the standard deviation values.
(§8) To explore the tolerability of bisphenylthiazoles, their cytotoxicity profile was assessed in human colorectal adenocarcinoma (Caco-2) and monkey kidney epithelial cells (Vero) as described earlier. Briefly, compounds were incubated with the cells for 24 hours. Then, cells were incubated with MTS reagent for 3 hours before measuring the absorbance values (OD490). The experiment was repeated in two independent times.

[9] = test system: human colorectal cells (Caco-2); experiment: In vitro cytotoxicity, MTS assay; details: human, 24 h
Procedure: as §7, §8

Cc1nc(-c2ccc(-c3ccccc3)cc2)sc1-c1nnc(NCCN)o1 [Compound 7, N-{5-[2-((1,1’-Biphenyl)-4-yl)-4-methylthiazol-5-yl]-1,3,4-oxadiazol-2-yl}ethane-1,2-diamine]
16 µg/mL: MIC (Aspergillus fumigatus; A. fumigatus NR 35303) | MIC (Candida albicans; C. albicans NR-29448 (fluconazole-resistant))
4 µg/mL: MIC (Cryptococcus neoformans; C. neoformans NR 41300) | MIC (Candida auris; C. auris 384) | MIC (Candida auris; C. auris 385) | MIC (Candida auris; C. auris 388) | MIC (Candida albicans; C. albicans SS5314 (wild-type))
64 µg/mL: MIC [2] | MIC [5]
1 µg/mL: MIC (Candida glabrata; C. glabrata ATCC MYA-2950)
> 128 µg/mL: MIC [1] | MIC [3]
2 µg/mL: MIC (Cryptococcus neoformans; C. neoformans NR 41298) | MIC (Cryptococcus neoformans; C. neoformans NR 48770) | MIC (Cryptococcus gattii; C. gattii NR 43209) | MIC (Cryptococcus gattii; C. gattii NR 43210) | MIC (Candida parapsilosis; ATCC22019, C. parapsilosis ATCC 22019) | MIC (Candida parapsilosis; C. parapsilosis CAB 502638) | MIC (Candida auris; C. auris 383) | MIC (Candida auris; C. auris 390) | MIC (Candida krusei; ATCC34135, C. krusei ATCC 34135) | MIC (Candida krusei; C. krusei CAB 396420) | MIC (Candida glabrata; ATCC66032, C. glabrata ATCC 66032)
> 64 µg/mL: MIC [4] | MIC [7]
8 µg/mL: MIC (Aspergillus fumigatus; A. fumigatus NR 35304) | MIC (Candida auris; C. auris 381) | MIC (Candida auris; C. auris 382) | MIC (Candida auris; C. auris 386) | MIC (Candida auris; C. auris 387) | MIC (Candida auris; C. auris 389) | MIC (Candida tropicalis) | MIC (Candida albicans; ATCC10231, C. albicans ATCC 10231)
≤ 64 µg/mL: concentration up to which non-toxic [8] | concentration up to which non-toxic [9]
32 µg/mL: MIC (MRSA USA300)
-ve: GSH trap [6]
145 to 146 °C: melting point

Source: article PMC8568133, “Evaluation of bisphenylthiazoles as a promising class for combating multidrug-resistant fungal infections” (PLoS ONE, 2021)
